Measured values published in patent US20080039629A1, “Benzothniazole compositions and their use as ubiquition ligation inhibitors” (RIGEL PHARMACEUTICALS, INC., priority 2003, published 2008).

Biological target: T1, E1 and His-E2 Ubch10 (Homo sapiens, UniProt P22314)
T1 construct: host or cells: E. coli (His-Ubch10); Sf9 insect cells (E1)
T1 sequence (P22314 1-1058): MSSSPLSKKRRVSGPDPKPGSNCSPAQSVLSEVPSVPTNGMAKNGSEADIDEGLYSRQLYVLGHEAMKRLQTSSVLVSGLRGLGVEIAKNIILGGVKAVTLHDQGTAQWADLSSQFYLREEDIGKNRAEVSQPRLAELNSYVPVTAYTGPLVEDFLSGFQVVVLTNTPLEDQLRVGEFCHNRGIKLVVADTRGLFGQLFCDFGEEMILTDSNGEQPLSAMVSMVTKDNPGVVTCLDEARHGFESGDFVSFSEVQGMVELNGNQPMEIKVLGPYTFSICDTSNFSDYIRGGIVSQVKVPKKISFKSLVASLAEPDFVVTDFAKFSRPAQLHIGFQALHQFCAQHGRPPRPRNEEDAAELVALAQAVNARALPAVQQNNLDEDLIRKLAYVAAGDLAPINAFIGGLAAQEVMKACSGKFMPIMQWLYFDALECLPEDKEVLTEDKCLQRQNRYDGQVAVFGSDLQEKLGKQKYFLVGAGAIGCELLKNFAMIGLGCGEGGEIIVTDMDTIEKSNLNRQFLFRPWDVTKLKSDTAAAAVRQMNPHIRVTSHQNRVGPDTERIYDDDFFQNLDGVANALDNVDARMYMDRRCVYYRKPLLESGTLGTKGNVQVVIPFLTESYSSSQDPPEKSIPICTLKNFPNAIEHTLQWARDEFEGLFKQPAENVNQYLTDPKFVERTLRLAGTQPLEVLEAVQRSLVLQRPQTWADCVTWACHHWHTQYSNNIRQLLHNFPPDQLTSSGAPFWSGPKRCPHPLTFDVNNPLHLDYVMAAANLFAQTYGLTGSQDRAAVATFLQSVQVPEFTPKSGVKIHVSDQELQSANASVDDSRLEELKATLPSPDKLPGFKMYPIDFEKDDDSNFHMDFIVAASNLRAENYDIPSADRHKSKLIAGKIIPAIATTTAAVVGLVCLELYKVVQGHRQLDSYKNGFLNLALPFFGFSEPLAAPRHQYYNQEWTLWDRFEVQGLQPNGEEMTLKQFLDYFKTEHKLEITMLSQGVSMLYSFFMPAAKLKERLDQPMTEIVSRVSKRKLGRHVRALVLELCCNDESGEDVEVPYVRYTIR
Assay: E1 to E2 transfer assay, His-E2 Ubch10, 1.0 μM ATP (low ATP)
Format: biochemical
Settings: Table 5, ATP inhibition properties; inhibition measured using IC50 values
Source text: Biological assays for determining the transfer of ubiquitin from the E1 activating agent to the E2 conjugating agent are described in U.S. patent application Ser. Nos. 09/542,497 and 09/826,312 as well as in the PCT Application WO 01/75145, all of which are incorporated by reference in their entirety. The following assay example illustrates one way by which the ubiquitin ligase inhibitory activity of the compounds of the invention can be assayed. This assay example is not meant to limit in any way the use of the compounds of the invention as ubiquitin ligase inhibitors.
The attachment of a ubiquitin moiety to the E2 conjugating agent was assayed using Flag-ubiquitin that was purified from E. coli, E2 Ubch10 that was purified as a His-Ubch10 from E. coli, and E1 that was purified from Sf9 insect cells (Affiniti Research Products, Exeter, U.K.). The wells of a Nickel-substrate 96-well plate (Pierce Chemical) were blocked with 100 μl of 1% casein/phosphate buffered saline (PBS) for 1 hour at room temperature. The blocked Nickel-substrate plate was then washed three times with 200 μl of PBST (0.1% Tween-20 in PBS). Subsequently, Flag-ubiquitin reaction solution was added to each well so that the final concentration was 62.5 mM Tris pH 7.5, […], 0.75 mM DTT, 1.0 μM ATP (low ATP), and 100 ng Flag-ubiquitin. The final reaction solution volume was fixed to 80 μl with Millipore-filtered water. To this was added the following: a ubiquitin agent inhibitor in 10 μl of DMSO, 10 μl of E1 and His-E2 Ubch10 in 20 mM Tris buffer, pH 7.5, and 5% glycerol so that there was 10 ng/well of E1 and 20 ng/well of His-E2 Ubch10. The reaction was then allowed to proceed at room temperature for 1 hour.
After 1 hour, the wells were washed three times with 200 μl of PBST and the amount of E2-ubiquitin complex was measured. For measuring the amount of the E2-ubiquitin complex, 100 μl of Mouse anti-flag diluted 1:10,000 (Sigma Aldrich Fluka Chemicals, St. Louis, Mo.) and anti-mouse HRP diluted 1:15,000 (Jackson Immunoresearch labs, West Grove, Pa.) in PBST were added to each well and allowed to incubate at room temperature for another hour. The wells were then washed three times with 200 μl of PBST and 100 μl of luminol substrate (⅕ dilution) was added. The luminescence of each well was then measured using a […] to calculate the amount of E2-ubiquitin complex. This procedure was repeated using His-E2 Ubch5C instead of His-E2 Ubch10.
The table below illustrates the inhibitory properties of the pharmaceutical compostions of the invention comprising the compounds listed in the table using the assays described above. Inhibition was measured using IC50 values.

| Compound | UBC10 |
| --- | --- |
| COc1ccc2nc(NC(=O)C3CCNCC3)sc2c1 [Compound 44, N-(6-methoxybenzo[d]thiazol-2-yl)piperidine-4-carboxamide] | −− (−− indicates marginal or no inhibition detected with this assay) |
| CCCC1CCC(C(=O)Nc2nc3ccc(OC)cc3s2)CC1 (centres unmarked) [Compound 45, N-(6-methoxybenzo[d]thiazol-2-yl)-4-propylcyclohexanecarboxamide] | ++ (++ indicates inhibition at 50 μM or or less) |
| COc1ccc2nc(NC(=O)C3CCC3)sc2c1 [Compound 46, N-(6-methoxybenzo[d]thiazol-2-yl)cyclobutanecarboxamide] | ++ (++ indicates inhibition at 50 μM or or less) |
| COc1ccc2nc(NC(=O)C(C)C)sc2c1 [Compound 47, N-(6-methoxybenzo[d]thiazol-2-yl)isobutyramide] | −− (−− indicates marginal or no inhibition detected with this assay) |
| COc1ccc2nc(NC(=O)C(C)(C)C)sc2c1 [Compound 48, N-(6-methoxybenzo[d]thiazol-2-yl)pivalamide] | ++ (++ indicates inhibition at 50 μM or or less) |
| COc1ccc2nc(NC(=O)c3cccs3)sc2c1 [Compound 49, N-(6-methoxybenzo[d]thiazol-2-yl)thiophene-2-carboxamide] | ++ (++ indicates inhibition at 50 μM or or less) |
| COc1ccc2nc(NC(=O)c3ccc([N+](=O)[O-])s3)sc2c1 [Compound 50, N-(6-methoxybenzo[d]thiazol-2-yl)-5-nitrothiophene-2-carboxamide] | −− (−− indicates marginal or no inhibition detected with this assay) |
| COc1ccc2nc(N3C(=O)c4ccccc4C3=O)sc2c1 [Compound 51, 2-(6-methoxybenzo[d]thiazol-2-yl)isoindoline-1,3-dione] | ++ (++ indicates inhibition at 50 μM or or less) |
| COc1ccc2nc(NC(=O)c3ccncc3)sc2c1 [Compound 52, N-(6-methoxybenzo[d]thiazol-2-yl)isonicotinamide] | −− (−− indicates marginal or no inhibition detected with this assay) |
| COc1ccc2nc(NC(=O)c3cccnc3)sc2c1 [Compound 53, N-(6-methoxybenzo[d]thiazol-2-yl)nicotinamide] | ++ (++ indicates inhibition at 50 μM or or less) |
| COc1ccc2nc(NC(=O)c3cccc([N+](=O)[O-])c3)sc2c1 [Compound 54, N-(6-methoxybenzo[d]thiazol-2-yl)-3-nitrobenzamide] | −− (−− indicates marginal or no inhibition detected with this assay) |
| COc1ccc2nc(NC(=O)c3cccc4ccccc34)sc2c1 [Compound 55, N-(6-methoxybenzo[d]thiazol-2-yl)-1-naphthamide] | −− (−− indicates marginal or no inhibition detected with this assay) |
| COc1ccc2nc(NC(=O)c3cccc(C)c3)sc2c1 [Compound 56, N-(6-methoxybenzo[d]thiazol-2-yl)-3-methylbenzamide] | ++ (++ indicates inhibition at 50 μM or or less) |
| COc1ccc2nc(NC(=O)c3ccc(F)cc3)sc2c1 [Compound 57, 4-fluoro-N-(6-methoxybenzo[d]thiazol-2-yl)benzamide] | ++ (++ indicates inhibition at 50 μM or or less) |
| COc1ccc2nc(NC(=O)c3cccc(F)c3)sc2c1 [Compound 58, 3-fluoro-N-(6-methoxybenzo[d]thiazol-2-yl)benzamide] | ++ (++ indicates inhibition at 50 μM or or less) |
| COc1ccc2nc(NC(=O)c3ccccc3F)sc2c1 [Compound 59, 2-fluoro-N-(6-methoxybenzo[d]thiazol-2-yl)benzamide] | ++ (++ indicates inhibition at 50 μM or or less) |
| COc1cccc(C(=O)Nc2nc3ccc(OC)cc3s2)c1 [Compound 60, 3-methoxy-N-(6-methoxybenzo[d]thiazol-2-yl)benzamide] | ++ (++ indicates inhibition at 50 μM or or less) |
| COc1ccc2nc(NC(=O)c3ccccc3OC)sc2c1 [Compound 61, 2-methoxy-N-(6-methoxybenzo[d]thiazol-2-yl)benzamide] | −− (−− indicates marginal or no inhibition detected with this assay) |
| Cc1ccc(C(=O)Nc2nc3ccc(Cl)cc3s2)cc1 [Compound 70, N-(6-chlorobenzo[d]thiazol-2-yl)-4-methylbenzamide] | −− (−− indicates marginal or no inhibition detected with this assay) |
| Cc1ccc(C(=O)Nc2nc3c(C)cccc3s2)cc1 [Compound 71, 4-methyl-N-(4-methylbenzo[d]thiazol-2-yl)benzamide] | −− (−− indicates marginal or no inhibition detected with this assay) |
| CC(=O)Nc1ccc2nc(NC(=O)c3ccc(C)cc3)sc2c1 [Compound 72, N-(6-acetamidobenzo[d]thiazol-2-yl)-4-methylbenzamide] | −− (−− indicates marginal or no inhibition detected with this assay) |
| Cc1ccc(C(=O)Nc2nc3ccc(S(N)(=O)=O)cc3s2)cc1 [Compound 73, N-[6-(aminosulfonyl)-1,3-benzothiazol-2-yl]-4-methylbenzamide] | −− (−− indicates marginal or no inhibition detected with this assay) |
| COC(=O)c1ccc(C(=O)Nc2nc3ccc(N)cc3s2)cc1 [Compound 74, methyl 4-((6-aminobenzo[d]thiazol-2-yl)carbamoyl)benzoate] | −− (−− indicates marginal or no inhibition detected with this assay) |
| Cc1ccc(C(=O)Nc2nc3ccc(OC(F)(F)F)cc3s2)cc1 [Compound 75, 4-methyl-N-(6-(trifluoromethoxy)benzo[d]thiazol-2-yl)benzamide] | −− (−− indicates marginal or no inhibition detected with this assay) |
| Cc1ccc(C(=O)Nc2nc3c(C)cccc3s2)cc1C [Compound 76, 3,4-dimethyl-N-(4-methylbenzo[d]thiazol-2-yl)benzamide] | −− (−− indicates marginal or no inhibition detected with this assay) |
| CCc1ccc(C(=O)Nc2nc3ccc(OC)cc3s2)cc1 [Compound 77, 4-ethyl-N-(6-methyoxybenzo[d]thiazol-2-yl)benzamide] | ++ (++ indicates inhibition at 50 μM or or less) |
| CCc1ccc(C(=O)Nc2nc3ccc(C)cc3s2)cc1 [Compound 78, 4-ethyl-N-(6-methylbenzo[d]thiazol-2-yl)benzamide] | −− (−− indicates marginal or no inhibition detected with this assay) |
| Cc1ccc(C(=O)Nc2nc3ccc([N+](=O)[O-])cc3s2)cc1C [Compound 79, 3,4-dimethyl-N-(6-nitrobenzo[d]thiazol-2-yl)benzamide] | ++ (++ indicates inhibition at 50 μM or or less) |
| Cc1ccc2nc(NC(=O)c3ccc(C)c(C)c3)sc2c1 [Compound 80, 3,4-dimethyl-N-(6-methylbenzo[d]thiazol-2-yl)benzamide] | −− (−− indicates marginal or no inhibition detected with this assay) |
